In US10894782B2, “Modulators of P97 AAA ATPase activity” (University of Pittsburgh—Of the Commonwealth System of …, priority 2016, dated 2021):

Molecular target: P97 (Homo sapiens (Human), UniProt P55072)
Assay: P97 Biomolgreen ATPase assay, 200 μM ATP
Type: biochemical
Conditions: P97 Biomolgreen, IC50 (μM)

P97, sequence (P55072 whole entry): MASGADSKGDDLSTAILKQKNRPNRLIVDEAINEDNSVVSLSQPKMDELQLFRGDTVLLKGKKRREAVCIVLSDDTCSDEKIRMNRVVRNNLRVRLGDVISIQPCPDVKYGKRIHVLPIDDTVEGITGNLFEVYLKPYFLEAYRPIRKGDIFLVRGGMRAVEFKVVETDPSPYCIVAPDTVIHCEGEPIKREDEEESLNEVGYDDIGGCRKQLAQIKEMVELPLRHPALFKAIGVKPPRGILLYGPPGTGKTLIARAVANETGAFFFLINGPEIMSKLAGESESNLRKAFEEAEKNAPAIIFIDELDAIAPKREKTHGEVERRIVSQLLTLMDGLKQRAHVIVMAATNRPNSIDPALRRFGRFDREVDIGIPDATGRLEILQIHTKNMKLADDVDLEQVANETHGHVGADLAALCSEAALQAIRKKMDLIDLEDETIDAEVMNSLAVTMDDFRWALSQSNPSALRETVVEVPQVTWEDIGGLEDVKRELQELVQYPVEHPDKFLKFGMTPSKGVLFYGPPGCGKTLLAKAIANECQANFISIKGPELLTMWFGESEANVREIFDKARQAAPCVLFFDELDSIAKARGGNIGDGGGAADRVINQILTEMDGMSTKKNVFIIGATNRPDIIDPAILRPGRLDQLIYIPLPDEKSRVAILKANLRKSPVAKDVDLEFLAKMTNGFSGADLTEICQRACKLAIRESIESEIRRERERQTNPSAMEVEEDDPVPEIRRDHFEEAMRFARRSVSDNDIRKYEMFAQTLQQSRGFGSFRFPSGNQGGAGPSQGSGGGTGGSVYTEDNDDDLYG

IC50 [µM] | SMILES
0.55 | [2H]C1([2H])C([2H])([2H])C([2H])([2H])C([2H])(Sc2nnc(COc3ccc(C#CC(O)c4ccccc4)c(C)c3)n2-c2cccnc2)C1([2H])[2H] (centres unmarked) [Compound 52]
0.2 | [2H]C1([2H])C([2H])([2H])C([2H])([2H])C([2H])(Sc2nnc(COc3ccc(C#CCNCC4(N5CCN(C(C)C)CC5)CCC4)c(C)c3)n2-c2cccnc2)C1([2H])[2H] [Compound 67]
0.17 | [2H]C1([2H])C([2H])([2H])C([2H])([2H])C([2H])(Sc2nnc(COc3ccc(C#CCNCCN4CCN(C)CC4)c(C)c3)n2-c2cccnc2)C1([2H])[2H] [Compound 68]
0.048 | [2H]C1([2H])C([2H])([2H])C([2H])([2H])C([2H])(Sc2nnc(COc3ccc(C#CCO)c(C)c3)n2-c2cccnc2)C1([2H])[2H] [Compound 93]
0.025 | [2H]C1([2H])C([2H])([2H])C([2H])([2H])C([2H])(Sc2nnc(COc3ccc(C#CCOC(=O)NCCN4CCN(C(C)C)CC4)c(C)c3)n2-c2cccnc2)C1([2H])[2H] [Compound 100]
0.03 | [2H]C1([2H])C([2H])([2H])C([2H])([2H])C([2H])(Sc2nnc(COc3ccc(C#CCO)c(F)c3)n2-c2cccnc2)C1([2H])[2H] [Compound 105]
0.02 | [2H]C1([2H])C([2H])([2H])C([2H])([2H])C([2H])(Sc2nnc(COc3ccc(C#CCOC(=O)NC)c(F)c3)n2-c2cccnc2)C1([2H])[2H] [Compound 106]
0.03 | [2H]C([2H])(O)C#Cc1ccc(OCc2nnc(SC3([2H])C([2H])([2H])C([2H])([2H])C([2H])([2H])C3([2H])[2H])n2-c2cccnc2)cc1F [Compound 109]
0.99 | [2H]C1([2H])C([2H])([2H])C([2H])([2H])C([2H])(Sc2nnc(CNc3ccc(C#CCO)c(C)c3)n2-c2cccnc2)C1([2H])[2H] [Compound 117]
0.021 | [2H]C1([2H])C([2H])([2H])C([2H])([2H])C([2H])(Sc2nnc(COc3cc(F)c(C#CCO)cc3F)n2-c2cccnc2)C1([2H])[2H] [Compound 123]
0.01 | [2H]C1([2H])C([2H])([2H])C([2H])([2H])C([2H])(Sc2nnc(COc3cc(F)c(C#CCOC(=O)NC4CCN(C)CC4)cc3F)n2-c2cccnc2)C1([2H])[2H] [Compound 124]
0.016 | [2H]C1([2H])C([2H])([2H])C([2H])([2H])C([2H])(Sc2nnc(COc3ccc(C#CCOC(=O)NC4CCN(C)CC4)c(C)c3)n2-c2cccnc2)C1([2H])[2H] [Compound 125]

Same assay, conditions: read-out: P97 Biomolgreen, IC50

IC50 [µM] | SMILES
0.67 | C#Cc1ccc(OCc2nnc(SC3CC3)n2-c2cccnc2)cc1C [Compound 48]
0.28 | Cc1cc(OCc2nnc(SC3CCCC3)n2-c2cccnc2)ccc1C#CCN1C(=O)c2ccccc2C1=O [Compound 50]
0.44 | C#Cc1ccc(OCc2nnc(CC3CCCC3)n2-c2cccnc2)cc1C [Compound 51]
1.1 | Cc1cc(OCc2nnc(SC3C=CCCC3)n2-c2cccnc2)ccc1C#CC1(NC(=O)OC(C)(C)C)CCCCC1 (centres unmarked) [Compound 53]
2 | Cc1cc(OCc2nnc(SC3CC3)n2-c2cccnc2)ccc1C#CCNC(=O)OC(C)(C)C [Compound 54]
> 6.7 | N#Cc1ccc(C#CCOCc2nnc(SC3CCCC3)n2-c2cccnc2)cc1 [Compound 56]
0.093 | Cc1cc(OCc2nnc(SC3CCCC3)n2-c2cccnc2)ccc1C#CCO [Compound 58]
0.025 | Cc1cc(OCc2nnc(SC3C=CCCC3)n2-c2cccnc2)ccc1C#CCOC(=O)NCCN1CCN(C)CC1 (centres unmarked) [Compound 59]
0.019 | Cc1cc(OCc2nnc(SC3C=CCCC3)n2-c2cccnc2)ccc1C#CCOC(=O)NCCN1CCN(C(C)C)CC1 (centres unmarked) [Compound 60]
0.029 | Cc1cc(OCc2nnc(SC3C=CCCC3)n2-c2cccnc2)ccc1C#CCOC(=O)NCCC(=O)N1CCN(C)CC1 (centres unmarked) [Compound 61]
0.11 | Cc1cc(OCc2nnc(SC3C=CCCC3)n2-c2cccnc2)ccc1C#CC(OC(=O)NCCN1CCN(C(C)C)CC1)C(F)(F)F (centres unmarked) [Compound 62]
0.048 | Cc1cc(OCc2nnc(SC3C=CCCC3)n2-c2cccnc2)ccc1C#CCNS(=O)(=O)N1CCOCC1 (centres unmarked) [Compound 63]
0.06 | Cc1cc(OCc2nnc(SC3C=CCCC3)n2-c2cccnc2)ccc1C#CCNS(=O)(=O)N1CCCC1 (centres unmarked) [Compound 64]
0.047 | Cc1cc(OCc2nnc(SC3C=CCCC3)n2-c2cccnc2)ccc1C#CCNS(=O)(=O)N1CCN(C)CC1 (centres unmarked) [Compound 65]
0.12 | Cc1cc(OCc2nnc(CC3CCCC3)n2-c2cccnc2)ccc1C#CCOC(=O)NCCN1CCN(C(C)C)CC1 [Compound 66]
0.066 | Cc1cc(OCc2nnc(CC3CCCC3)n2-c2cccnc2)ccc1C#CCOC(=O)NCCN1CCN(C)CC1 [Compound 69]
0.098 | Cc1cc(OCc2nnc(CC3CCCC3)n2-c2cccnc2)ccc1C#CCOC(=O)NCCC(=O)N1CCN(C)CC1 [Compound 70]
0.18 | Cc1cc(OCc2nnc(SC3C=CCCC3)n2-c2cccnc2)ccc1C#CC1(O)CN(C(=O)OC(C)(C)C)C1 (centres unmarked) [Compound 72]
0.052 | Cc1cc(OCc2nnc(SC3C=CCCC3)n2-c2cccnc2)ccc1C#CCNC(=O)NCCN1CCN(C(C)C)CC1 (centres unmarked) [Compound 73]

IC50 [µM] | SMILES
0.51 | Cc1cc(OCc2nnc(SC3CCCC=C3F)n2-c2cccnc2)ccc1C#CCO (centres unmarked) [Compound 74]
0.03 | Cc1cc(OCc2nnc(SC3C=CCCC3)n2-c2cccnc2)ccc1C#CCOC(=O)N1CCN(C)CC1 (centres unmarked) [Compound 76]
0.02 | CN1CCN(CCNC(=O)OCC#Cc2ccc(OCc3nnc(SC4C=CCCC4)n3-c3cccnc3)cc2F)CC1 (centres unmarked) [Compound 77]
0.09 | Cc1cc(OCc2nnc(SC3C=CCCC3)n2-c2cccnc2)ccc1C#CCNS(=O)(=O)C1CCN(C(=O)OC(C)(C)C)CC1 (centres unmarked) [Compound 78]
0.037 | Cc1cc(OCc2nnc(SC3C=CCCC3)n2-c2cccnc2)ccc1C#CCO (centres unmarked) [Compound 79]
0.23 | Cc1cc(OCc2nnc(SC3CCCC=C3F)n2-c2cccnc2)ccc1C#CCOC(=O)NCCN1CCN(C)CC1 (centres unmarked) [Compound 80]
0.16 | Cc1cc(OCc2nnc(SC3CCCC=C3F)n2-c2cccnc2)ccc1C#CCOC(=O)NCCN1CCN(C(C)C)CC1 (centres unmarked) [Compound 81]
0.043 | CN1CCN(CCNC(=O)OCC#Cc2ccc(OCc3nnc(SC4C=CCCC4)n3-c3cccnc3)cc2C(F)(F)F)CC1 (centres unmarked) [Compound 82]
0.046 | CC(=O)NCC#Cc1ccc(OCc2nnc(SC3C=CCCC3)n2-c2cccnc2)cc1C (centres unmarked) [Compound 83]
2.11 | Cc1cc(OCc2nnc(SC3C=CCCC3)n2-c2cncc(Cl)c2)ccc1C#CCO (centres unmarked) [Compound 84]
0.934 | Cc1cc(OCc2nnc(SC3C=CCCC3)n2-c2cncc(Cl)c2)ccc1C#CCOC(=O)NCCN1CCN(C)CC1 (centres unmarked) [Compound 85]
0.06 | C=C(C)C(=O)NCC#Cc1ccc(OCc2nnc(SC3C=CCCC3)n2-c2cccnc2)cc1C (centres unmarked) [Compound 86]
0.058 | C/C=C/C(=O)NCC#Cc1ccc(OCc2nnc(SC3C=CCCC3)n2-c2cccnc2)cc1C (centres unmarked) [Compound 87]
0.06 | Cc1cc(OCc2nnc(SC3C=CCCC3)n2-c2cccnc2)ccc1C#CCNCCN(C)C (centres unmarked) [Compound 88]
0.028 | Cc1cc(OCc2nnc(SC3CCCC3)n2-c2cccnc2)ccc1C#CCO [Compound 89]
0.084 | Cc1cc(OCc2nnc(SC3C=CCCC3)n2-c2cccnc2)ccc1C#CCOC(=O)NCCN1CCN(C(C)C)CC1 (centres unmarked) [Compound 90]
0.026 | C=CC(=O)NCC#Cc1ccc(OCc2nnc(SC3C=CCCC3)n2-c2cccnc2)cc1C (centres unmarked) [Compound 92]
0.03 | CCC(=O)NCC#Cc1ccc(OCc2nnc(SC3C=CCCC3)n2-c2cccnc2)cc1C (centres unmarked) [Compound 94]
0.03 | Cc1cc(OCc2nnc(SC3C=CCCC3)n2-c2cccnc2)ccc1C#CCNC(=O)CCl (centres unmarked) [Compound 95]

IC50 [µM] | SMILES
0.026 | OCC#Cc1ccc(OCc2nnc(SC3C=CCCC3)n2-c2cccnc2)cc1F (centres unmarked) [Compound 97]
4.82 | Cc1cc(OCc2nnc(S(=O)(=O)C3C=CCCC3)n2-c2cccnc2)ccc1C#CCO (centres unmarked) [Compound 98]
0.183 | Cc1cc(OCc2nnc(OC3CCCC3)n2-c2cccnc2)ccc1C#CCO [Compound 99]
0.03 | Cc1cc(OCc2nnc(SC3C=CCCC3)n2-c2cccnc2)ccc1C#CCOC(=O)N1CCN(C(C)C)CC1 (centres unmarked) [Compound 101]
0.03 | CC(=O)N1CCN(C(=O)OCC#Cc2ccc(OCc3nnc(SC4C=CCCC4)n3-c3cccnc3)cc2C)CC1 (centres unmarked) [Compound 102]
0.03 | Cc1cc(OCc2nnc(SC3C=CCCC3)n2-c2cccnc2)ccc1C#CCNC(=O)C1CC1 (centres unmarked) [Compound 103]
0.05 | Cc1cc(C(=O)NCC#Cc2ccc(OCc3nnc(SC4C=CCCC4)n3-c3cccnc3)cc2C)no1 (centres unmarked) [Compound 104]
0.013 | CN1CCN(CCNC(=O)OCC#Cc2ccc(OCc3nnc(SC4C=CCCC4)n3-c3cccnc3)cc2F)CC1 (centres unmarked) [Compound 107]
0.06 | Cc1cc(OCc2nnc(SC3CCCC3)n2-c2cccnc2)ccc1C#CCOC(=O)NCCNC(=O)CC1[C@H]2CC3C[C@H](C2)C[C@H]1C3 (some centres unmarked) [Compound 110]
0.03 | Cc1cc(OCc2nnc(SC3CCCC3)n2-c2cccnc2)ccc1C#CCOC(=O)NCCOCCNC(=O)CC1[C@H]2C[C@@H]3C[C@@H](C[C@H]1C3)C2 (some centres unmarked) [Compound 111]
0.025 | CCC(=O)NCC#Cc1ccc(OCc2nnc(SC3C=CCCC3)n2-c2cccnc2)cc1C (centres unmarked) [Compound 112]
0.04 | OCC#Cc1ccc(OCc2nnc(SC3C=CCCC3)n2-c2cccnc2)c(F)c1F (centres unmarked) [Compound 113]
0.02 | OCC#Cc1cc(F)c(OCc2nnc(SC3C=CCCC3)n2-c2cccnc2)cc1F (centres unmarked) [Compound 114]
0.1 | N#Cc1cc(OCc2nnc(SC3C=CCCC3)n2-c2cccnc2)ccc1C#CCO (centres unmarked) [Compound 115]
0.04 | COc1cc(C#CCO)c(F)cc1OCc1nnc(SC2C=CCCC2)n1-c1cccnc1 (centres unmarked) [Compound 116]
0.017 | CN1CCC(NC(=O)OCC#Cc2ccc(OCc3nnc(SC4C=CCCC4)n3-c3cccnc3)c(F)c2F)CC1 (centres unmarked) [Compound 118]
0.012 | CN1CCC(NC(=O)OCC#Cc2c(F)cc(OCc3nnc(SC4C=CCCC4)n3-c3cccnc3)cc2F)CC1 (centres unmarked) [Compound 120]
0.019 | COc1cc(C#CCOC(=O)NC2CCN(C)CC2)c(F)cc1OCc1nnc(SC2C=CCCC2)n1-c1cccnc1 (centres unmarked) [Compound 122]
